Patent US11226337B2, “Chemoproteomic profiling of protein electrophilic and oxidative post-translational modifications” (Zenagem, LLC, priority 2017, dated 2022)

Columns and labels:
Assay in all cases: SILAC RP-ABPP
Assay type in all cases: cell-based
[1] = molecular target: T1, ALDOA Fructosebisphosphate aldolase A (P04075) (Homo sapiens, UniProt P04075); details: SILAC H/L, HEK293T
T1 construct: shared by both the endogenous and recombinant forms of these proteins; endogenous in cells; host or cells: HEK293T and MDA-MB-231
T1 sequence (P04075 1-364): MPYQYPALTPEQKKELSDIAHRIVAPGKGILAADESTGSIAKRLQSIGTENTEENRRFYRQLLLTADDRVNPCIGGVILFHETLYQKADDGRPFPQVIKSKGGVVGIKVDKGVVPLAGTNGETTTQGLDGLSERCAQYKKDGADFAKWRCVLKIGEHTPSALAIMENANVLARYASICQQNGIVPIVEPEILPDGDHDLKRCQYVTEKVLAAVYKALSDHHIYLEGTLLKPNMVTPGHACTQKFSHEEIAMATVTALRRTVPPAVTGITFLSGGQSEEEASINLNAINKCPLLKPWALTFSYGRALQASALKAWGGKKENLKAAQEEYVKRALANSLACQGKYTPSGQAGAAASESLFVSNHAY
Method: (§1) For MS-based experiments, labelling was performed in a similar manner as described above in Example 2, maintaining the same concentrations of probes. Modifications to this protocol included using isotopically ‘light’ and ‘heavy’ SILAC cells that were also grown to near complete confluence prior to treatment. Isotopically light cells were treated with the non-clickable hydrazine probe (at the same concentration as the probe in ‘enrichment’ experiments) or the probe in the presence of 10-fold excess non-clickable hydrazine probe as a competitor (in ‘competition’ experiments). Isotopically heavy cells were treated with the probe for both types of experiments. These treatments were performed in non-SILAC media. Following treatments, cells were washed with cold PBS to remove the probe-containing media, harvested by scraping, collected by centrifugation (1,400 g, 3 min, 4° C.), washed again by resuspension in cold PBS and frozen as pellets at −80° C. until use.
(§2) The fractionated equimolar mixture of heavy and light soluble proteomes (1-1.5 mg) was diluted to 1 mL in PBS. Click reactions were scaled accordingly (except for biotin-azide) to maintain final concentrations of 0.1 mM TBTA, 1 mM CuSO4, 100 μM biotin-azide (10 mM in DMSO) and 1 mM TCEP. The mixture was vortexed and placed on a rotator at ambient temperature for 1 hour. Sequential addition of and mixture with pre-chilled methanol (MeOH, 2 mL), chloroform (CHCl3, 0.5 mL) and PBS (1 mL) on ice quenched the reaction. The precipitated proteome was centrifuged (5,000 g, 10 min, 4° C.) to fractionate the protein interphase from the organic and aqueous solvent layers. The protein pellet was washed with cold 1:1 MeOH:CHCl3 (3×1 mL), mildly sonicated in cold 4:1 MeOH:CHCl3 (2.5 mL) and pelleted once more by centrifugation (5,000 g, 10 min, 4° C.) to ensure click reagents were efficiently removed.
(§3) Heavy and light parent ion chromatograms associated with successfully identified peptides were extracted and compared using CIMAGE software as previously described^69. At least one ion of a co-eluting heavy-light pair must be accurately identified from a fragmentation event that occurred within the retention time window (±10 min) of parent ion elution. To ensure that the correct pair of peaks is quantified, chromatograms are extracted within a 10 ppm error tolerance of the predicted m/z, the signal-to-noise ratio must be >2.5 and the ‘co-elution correlation score’ and ‘envelope correlation score’ must have R^2 values ≥0.8. In addition, peptides detected as ‘singletons,’ where only the heavy ion of a peptide pair was identified, but for which passed all other filtering parameters, are given a default assigned ratio of ‘20,’ which is defined as any measured ratio that is ≥20.
(§4) To further eliminate false positives and any stochastic variability in the data, protein ratios were then determined by the median peptide ratio derived from three or more unique quantified peptides. Protein ratios that complied with these criteria from a single experiment were then averaged with ratios acquired from ≥3 replicates to provide final values for each type of experiment in both cell lines with both probes. […] Most importantly, there are no robustly measured ratios for proteins identified as probe 1 targets that had measured ratios of ˜1 with probe 2. Probe targets in HEK293T and MDA-MB-231 cells represent data combined from ≥3 independent biological replicates with each cell type performed with several independent batches of synthesized probes over a period of almost two years. […]

[2] = molecular target: T2, CTSZ Cathepsin Z (Q9UBR2) (Homo sapiens, UniProt Q9UBR2); details: SILAC H/L, MDA-MB-231
T2 construct: In Situ Labelling of Cells with Hydrazine Probes for MS Experiments; endogenous in cells; host or cells: HEK293T and MDA-MB-231
T2 sequence (Q9UBR2 62-303): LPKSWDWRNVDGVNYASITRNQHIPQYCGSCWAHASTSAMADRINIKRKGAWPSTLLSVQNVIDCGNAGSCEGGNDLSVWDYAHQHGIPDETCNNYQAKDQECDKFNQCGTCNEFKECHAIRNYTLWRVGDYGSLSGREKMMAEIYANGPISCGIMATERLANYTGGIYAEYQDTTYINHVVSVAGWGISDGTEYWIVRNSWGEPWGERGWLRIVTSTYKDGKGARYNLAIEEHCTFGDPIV
Method: as §1, §2, §3, §4

[3] = molecular target: T3, LIPA Lysosomal acid lipase/cholesteryl ester (P38571) (Homo sapiens, UniProt P38571); details: SILAC H/L, MDA-MB-231
T3 construct: In Situ Labelling of Cells with Hydrazine Probes for MS Experiments; endogenous in cells
T3 sequence (P38571 77-399): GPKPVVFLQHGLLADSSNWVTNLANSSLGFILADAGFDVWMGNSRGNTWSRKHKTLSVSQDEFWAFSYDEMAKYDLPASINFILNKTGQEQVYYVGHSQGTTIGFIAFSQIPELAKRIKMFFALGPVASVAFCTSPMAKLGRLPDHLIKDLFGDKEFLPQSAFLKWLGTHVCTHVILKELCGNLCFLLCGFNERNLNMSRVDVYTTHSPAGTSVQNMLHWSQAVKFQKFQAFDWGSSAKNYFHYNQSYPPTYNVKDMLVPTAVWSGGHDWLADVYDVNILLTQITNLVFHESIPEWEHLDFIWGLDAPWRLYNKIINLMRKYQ
Method: as §1, §2, §3, §4

enrichment ratioavg ([1]; probe 2 1 mM 0.5 h vs probe 4) | competition ratioavg ([1]; probe 2 vs probe 2+10x probe 4) | enrichment ratioavg ([2]; probe 2 1 mM 0.5 h vs probe 4) | competition ratioavg ([2]; probe 2 vs probe 2+10x probe 4) | enrichment ratioavg ([3]; probe 2 1 mM 0.5 h vs probe 4) | competition ratioavg ([3]; probe 2 vs probe 2+10x probe 4) | Compound | enrichment ratioavg ([1]; probe 1 3 mM 0.5 h vs probe 3) | competition ratioavg ([1]; probe 1 vs probe 1+10x probe 3) | enrichment ratioavg ([2]; probe 1 3 mM 0.5 h vs probe 3) | competition ratioavg ([2]; probe 1 vs probe 1+10x probe 3) | enrichment ratioavg ([3]; probe 1 3 mM 0.5 h vs probe 3) | competition ratioavg ([3]; probe 1 vs probe 1+10x probe 3)
12 | 5 | 19 | 5 | 17 | 3 | C#CCCNC(=O)c1ccc(NN)cc1.Cl [probe 2, N-(but-3-yn-1-yl)-4-hydrazinylbenzamide hydrochloride] |  |  |  |  |  | 
 |  |  |  |  |  | C#CCNN.Cl [probe 1, prop-2-yn-1-ylhydrazine hydrochloride] | 16 | 3 | 13 | 3 | 7 | 4
